The values that follow come from US10385024B2, “Compounds and methods for inhibiting NHE-mediated antiport in the treatment of disorders associated with fluid retention or salt overload and gastrointestinal tract disorders” (Ardelyx, Inc., priority 2012, dated 2019).

For data set [1], the target named is T1, human NHE-3 (Homo sapiens, UniProt P48764).
T1 construct: expressed in transfected cells; host or cells: Opossum kidney (OK) cells (ATCC), transfected by electroporation
T1 sequence (P48764 26-834): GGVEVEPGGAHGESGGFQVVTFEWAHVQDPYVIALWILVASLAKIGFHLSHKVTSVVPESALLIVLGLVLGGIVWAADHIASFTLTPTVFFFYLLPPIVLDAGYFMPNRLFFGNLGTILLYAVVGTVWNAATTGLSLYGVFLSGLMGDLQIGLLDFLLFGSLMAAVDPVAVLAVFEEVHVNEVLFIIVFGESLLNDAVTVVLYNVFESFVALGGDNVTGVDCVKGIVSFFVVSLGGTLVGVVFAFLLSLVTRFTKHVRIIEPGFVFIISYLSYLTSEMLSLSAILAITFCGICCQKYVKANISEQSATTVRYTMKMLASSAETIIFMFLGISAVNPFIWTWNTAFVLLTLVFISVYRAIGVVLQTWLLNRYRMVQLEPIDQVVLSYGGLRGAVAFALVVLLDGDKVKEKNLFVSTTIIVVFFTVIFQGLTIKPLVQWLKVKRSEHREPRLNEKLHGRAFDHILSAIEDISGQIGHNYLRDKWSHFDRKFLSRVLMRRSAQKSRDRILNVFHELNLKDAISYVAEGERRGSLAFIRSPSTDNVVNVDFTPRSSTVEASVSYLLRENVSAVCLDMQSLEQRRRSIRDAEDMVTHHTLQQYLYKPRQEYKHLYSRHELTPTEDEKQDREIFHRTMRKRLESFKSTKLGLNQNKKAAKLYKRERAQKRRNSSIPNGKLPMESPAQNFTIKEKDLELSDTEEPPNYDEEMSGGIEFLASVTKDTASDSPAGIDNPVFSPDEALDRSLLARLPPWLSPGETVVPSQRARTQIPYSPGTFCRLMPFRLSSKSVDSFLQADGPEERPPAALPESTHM
The data set can be described thus: Cell-based assay of NHE-3 activity (human NHE3 inhibition assay). The settings on record: OK cells with human NHE-3 gene, BCECF pH dye, 0-30 μM test compound; read-out: Human NHE3 pIC50 (converted). In a few lines:
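Opossum kidney cells electroporated with rat or human NHE-3, loaded with 5 μM BCECF-AM in NH4Cl-HEPES pH 7.4 for 30 min at RT, then acidified 10 min in Na+-free choline HEPES. Na+-dependent pH recovery rates from BCECF fluorescence, averaged over ≥2 replicates, gave pIC50.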

The nature of data set [2]: Plasma PK. The class given is in vivo, Sprague-Dawley rats. The settings on record: Sprague-Dawley; rat plasma, oral gavage, nominal dose 30 mg/kg, mean of n=3, sampling 0.5-4 h. The method, then: Sprague-Dawley rats (n=3) were dosed with test compounds by oral gavage. Blood was collected at 0.5, 1, 2 and 4 h via retro-orbital bleeds and processed to plasma using K2EDTA as an anticoagulant. Plasma samples were treated with acetonitrile containing an internal standard and precipitated proteins were removed by centrifugation. Supernatants were analyzed by LC-MS/MS and compound concentrations were determined by interpolation from a calibration curve prepared in plasma. Accurate recovery of quality control samples were confirmed to accept each analytical run.

Data set [3] in a line: Pharmacokinetic evaluation in bile. The class given is in vivo, Sprague-Dawley rats. The settings on record: bile duct cannulated rats, oral gavage, nominal dose 30 mg/kg, bile collected over 24 h, mean of n=3. The method, then:
Bile duct cannulated (BDC) Sprague-Dawley rats were dosed with test compounds by oral gavage and a single aliquot of bile was collected via cannula over the 24 h following dosing. Bile samples were treated with acetonitrile and precipitated proteins were removed by centrifugation. Some compounds required liquid-liquid extraction using MTBE. After centrifugation, samples were diluted as appropriate in mobile phase and analyzed by LC-MS/MS. The concentrations of compounds in bile were determined by interpolation from a standard calibration curve prepared in rat bile from untreated BDC rats. Accurate recovery of quality control samples was confirmed to accept each analytical run. Concentration in bile is reported in nM and represents the mean result from n=3 rats.

For `CN1Cc2c(Cl)cc(Cl)cc2[C@H](c2cccc(S(=O)(=O)NCCOCCOCCNC(=O)CCC(N)(CCC(=O)NCCOCCOCCNS(=O)(=O)c3cccc([C@@H]4CN(C)Cc5c(Cl)cc(Cl)cc54)c3)CCC(=O)NCCOCCOCCNS(=O)(=O)c3cccc([C@@H]4CN(C)Cc5c(Cl)cc(Cl)cc54)c3)c2)C1` [Example 2, 4-amino-N^1,N^7-bis(2-(2-(2-(3-((S)-6,8-dichloro-2-methyl-1,2,3,4-tetrahydroisoquinolin-4-yl)phenylsulfonamido)ethoxy)ethoxy)ethyl)-4-(3-(2-(2-(2-(3-((S)-6,8-dichloro-2-methyl-1,2,3,4-tetrahydroisoquinolin-4-yl)phenylsulfonamido)ethoxy)ethoxy)ethylamino)-3-oxopropyl)heptanediamide], in data set [1], the IC50 is less than 100 nM. In data set [2], this compound showed an AUC of less than 12 ng·h/mL and a Cmax of less than 4 ng/mL. Moreover, in data set [3], the “Concentration in Bile” value is listed as 4 nM.

As for `CN1Cc2c(Cl)cc(Cl)cc2[C@H](c2cccc(S(=O)(=O)NCCOCCOCCNC(=O)CCC(CCC(=O)NCCOCCOCCNS(=O)(=O)c3cccc([C@@H]4CN(C)Cc5c(Cl)cc(Cl)cc54)c3)(CCC(=O)NCCOCCOCCNS(=O)(=O)c3cccc([C@@H]4CN(C)Cc5c(Cl)cc(Cl)cc54)c3)N(C)C)c2)C1` [Example 4, N^1,N^7-bis(2-(2-(2-(3-((S)-6,8-dichloro-2-methyl-1,2,3,4-tetrahydroisoquinolin-4-yl)phenylsulfonamido)ethoxy)ethoxy)ethyl)-4-(3-(2-(2-(2-(3-((S)-6,8-dichloro-2-methyl-1,2,3,4-tetrahydroisoquinolin-4-yl)phenylsulfonamido)ethoxy)ethoxy)ethylamino)-3-oxopropyl)-4-(dimethylamino)heptanediamide], the IC50 in data set [1] is less than 100 nM. In data set [2], this compound gave an exposure (AUC) of less than 13 ng·h/mL and a Cmax of less than 5 ng/mL. Besides, the “Concentration in Bile” value in data set [3] is 45 nM.

On to `CN1Cc2c(Cl)cc(Cl)cc2[C@H](c2cccc(S(=O)(=O)NCCOCCOCCNC(=O)CCC(CCC(=O)NCCOCCOCCNS(=O)(=O)c3cccc([C@@H]4CN(C)Cc5c(Cl)cc(Cl)cc54)c3)(CCC(=O)NCCOCCOCCNS(=O)(=O)c3cccc([C@@H]4CN(C)Cc5c(Cl)cc(Cl)cc54)c3)NC(=O)NCC(=O)O)c2)C1` [Example 7, 18-(3-((S)-6,8-dichloro-2-methyl-1,2,3,4-tetrahydroisoquinolin-4-yl)phenylsulfonamido)-6,6-bis(3-(2-(2-(2-(3-((S)-6,8-dichloro-2-methyl-1,2,3,4-tetrahydroisoquinolin-4-yl)phenylsulfonamido)ethoxy)ethoxy)ethylamino)-3-oxopropyl)-4,9-dioxo-13,16-dioxa-3,5,10-triazaoctadecan-1-oic acid], for which, in data set [1], the IC50 was less than 100 nM. In data set [2], this compound registered an AUC of less than 8 ng·h/mL and a Cmax of less than 2 ng/mL. In addition, in data set [3], the “Concentration in Bile” value came out at 19 nM.

By AUC is commonly meant the area under the concentration-time curve, a measure of exposure. Lower therefore signals low exposure. A word on the Cmax: it is the maximum level reached in the sampled fluid or tissue.
